# Legend:
# [1] = target: Platelet-derived growth factor receptor (Homo sapiens, UniProt P09619+P16234); experiment: Inhibition of PDGFR-alpha/beta (unknown origin) in presence of ATP Km treated at 2 hrs followed by […] ligand addition for 15 mins by ELISA analysis
# [2] = target: T1, Cytochrome P450 1A2 (Homo sapiens, UniProt P05177); experiment: Inhibition of CYP1A2 (unknown origin) in presence of NADPH generating system incubated for 20 mins by luminescent method; type: ADME
# T1 sequence (P05177 whole entry): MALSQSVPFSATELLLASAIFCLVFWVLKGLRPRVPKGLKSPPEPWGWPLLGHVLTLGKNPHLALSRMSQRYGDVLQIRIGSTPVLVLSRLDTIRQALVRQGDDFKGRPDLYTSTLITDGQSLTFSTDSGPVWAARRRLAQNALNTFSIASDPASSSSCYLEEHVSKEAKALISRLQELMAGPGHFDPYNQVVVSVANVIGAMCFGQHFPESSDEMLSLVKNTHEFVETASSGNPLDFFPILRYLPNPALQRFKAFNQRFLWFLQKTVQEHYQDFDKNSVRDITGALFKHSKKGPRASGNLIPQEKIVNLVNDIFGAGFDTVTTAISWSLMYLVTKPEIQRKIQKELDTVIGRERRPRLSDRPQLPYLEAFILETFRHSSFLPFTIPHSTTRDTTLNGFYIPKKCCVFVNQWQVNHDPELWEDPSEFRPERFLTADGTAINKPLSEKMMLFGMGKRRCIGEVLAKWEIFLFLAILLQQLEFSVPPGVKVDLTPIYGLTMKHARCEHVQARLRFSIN
# [3] = Clearance in CD-1 mouse measured at 5 mg/kg, iv for 1 to 24 hrs by HPLC-MS/MS analysis; type: ADME, organism-based; details: in vivo, time 1-24 hrs
# [4] = Volume of distribution at steady state in CD-1 mouse measured at 5 mg/kg, iv for 1 to 24 hrs by HPLC-MS/MS analysis; type: ADME, organism-based; details: in vivo, time 1-24 hrs, read-out: Vdss
# [5] = AUC (0 to infinity) in CD-1 mouse measured at 5 mg/kg, iv for 1 to 24 hrs by HPLC-MS/MS analysis; type: ADME, organism-based; details: in vivo, time 1-24 hrs
# [6] = Elimination half life in CD-1 mouse measured at 5 mg/kg, iv for 1 to 24 hrs by HPLC-MS/MS analysis; type: ADME, organism-based; details: in vivo, time 1-24 hrs, read-out: beta t1/2 (converted)
# [7] = Clearance in Sprague-Dawley rat measured at 5 mg/kg, iv for 1 to 24 hrs by HPLC-MS/MS analysis; type: ADME, organism-based; details: in vivo, time 1-24 hrs
# [8] = Volume of distribution at steady state in Sprague-Dawley rat measured at 5 mg/kg, iv for 1 to 24 hrs by HPLC-MS/MS analysis; type: ADME, organism-based; details: in vivo, time 1-24 hrs, read-out: Vdss
# [9] = AUC (0 to infinity) in Sprague-Dawley rat measured at 5 mg/kg, iv for 1 to 24 hrs by HPLC-MS/MS analysis; type: ADME, organism-based; details: in vivo, time 1-24 hrs
# [10] = Elimination half life in Sprague-Dawley rat measured at 5 mg/kg, iv for 1 to 24 hrs by HPLC-MS/MS analysis; type: ADME, organism-based; details: in vivo, time 1-24 hrs, read-out: beta t1/2 (converted)
# [11] = Clearance in Beagle dog measured at 2.5 mg/kg, iv for 1 to 24 hrs by HPLC-MS/MS analysis; type: ADME, organism-based, Canis lupus familiaris; details: in vivo, time 1-24 hrs
# [12] = Volume of distribution at steady state in Beagle dog measured at 2.5 mg/kg, iv for 1 to 24 hrs by HPLC-MS/MS analysis; type: ADME, organism-based, Canis lupus familiaris; details: in vivo, time 1-24 hrs, read-out: Vdss
# [13] = AUC (0 to infinity) in Beagle dog measured at 2.5 mg/kg, iv for 1 to 24 hrs by HPLC-MS/MS analysis; type: ADME, organism-based, Canis lupus familiaris; details: in vivo, time 1-24 hrs
# [14] = Cmax in CD-1 mouse measured at 5 mg/kg, po for 1 to 24 hrs by HPLC-MS/MS analysis; type: ADME, organism-based; details: in vivo, time 1-24 hrs
# [15] = Cmax in CD-1 mouse measured at 25 mg/kg, po for 1 to 24 hrs by HPLC-MS/MS analysis; type: ADME, organism-based; details: in vivo, time 1-24 hrs
# [16] = AUC last in CD-1 mouse measured at 25 mg/kg, po for 1 to 24 hrs by HPLC-MS/MS analysis; type: ADME, organism-based; details: in vivo, time 1-24 hrs
# [17] = Oral bioavailability in CD-1 mouse measured at 25 mg/kg for 1 to 24 hrs by HPLC-MS/MS analysis; type: ADME, organism-based; details: in vivo, time 1-24 hrs
# [18] = Cmax in CD-1 mouse measured at 75 mg/kg, po for 1 to 24 hrs by HPLC-MS/MS analysis; type: ADME, organism-based; details: in vivo, time 1-24 hrs
# [19] = AUC last in CD-1 mouse measured at 75 mg/kg, po for 1 to 24 hrs by HPLC-MS/MS analysis; type: ADME, organism-based; details: in vivo, time 1-24 hrs
# [20] = Oral bioavailability in CD-1 mouse measured at 75 mg/kg for 1 to 24 hrs by HPLC-MS/MS analysis; type: ADME, organism-based; details: in vivo, time 1-24 hrs
# [21] = AUC last in Sprague-Dawley rat measured at 12.5 mg/kg, po for 1 to 24 hrs by HPLC-MS/MS analysis; type: ADME, organism-based; details: in vivo, time 1-24 hrs
# [22] = Oral bioavailability in Sprague-Dawley rat measured at 12.5 mg/kg for 1 to 24 hrs by HPLC-MS/MS analysis; type: ADME, organism-based; details: in vivo, time 1-24 hrs
# [23] = AUC last in Sprague-Dawley rat measured at 100 mg/kg, po for 1 to 24 hrs by HPLC-MS/MS analysis; type: ADME, organism-based; details: in vivo, time 1-24 hrs
# [24] = Cmax in Beagle dog measured at 5 mg/kg, po for 1 to 24 hrs by HPLC-MS/MS analysis; type: ADME, organism-based, Canis lupus familiaris; details: in vivo, time 1-24 hrs
# [25] = AUC last in Beagle dog measured at 5 mg/kg, po for 1 to 24 hrs by HPLC-MS/MS analysis; type: ADME, organism-based, Canis lupus familiaris; details: in vivo, time 1-24 hrs
# [26] = In vivo inhibition of IGF-1R phosphorylation in athymic nu/nu CD-1 mouse allografted with mouse 3T3 cells expressing human IGF-1R at 75 mg/kg, po measured after 4 to 24 hrs relative to control; type: functional; details: nu/nu CD-1, NIH3T3, time 4-24 hrs
# [27] = system: NIH3T3; experiment: Antitumor activity against mouse 3T3 cells allografted in athymic nu/nu CD-1 mouse assessed as tumor regression at 75 mg/kg, po for 12 days relative to control; type: functional; details: time 12 day
# [28] = system: NIH3T3; experiment: Antitumor activity against mouse 3T3 cells allografted in athymic nu/nu CD-1 mouse assessed as tumor regression at 25 mg/kg, po for 12 days relative to control; type: functional; details: time 12 day
# [29] = system: NIH3T3; experiment: Antitumor activity against mouse 3T3 cells allografted in athymic nu/nu CD-1 mouse assessed as tumor growth inhibition at 75 mg/kg, po for 12 days relative to control; type: functional; details: NIH3T3, 288 h, time 12 day, read-out: TGI
# [30] = Toxicity in athymic nu/nu CD-1 mouse allografted with mouse 3T3 cells expressing human IGF-1R assessed as loss in body weight at 75 mg/kg, po for 12 days relative to control; type: organism-based, NIH3T3; details: in vivo, 288 h, time 12 day
# [31] = Toxicity in athymic nu/nu CD-1 mouse allografted with mouse 3T3 cells expressing human IGF-1R assessed as hyperglycemia at 75 mg/kg, po for 12 days; type: organism-based, NIH3T3; details: in vivo, 288 h, time 12 day
# [32] = Plasma concentration in CD-1 mouse measured at 25 mg/kg, po for 24 hrs by HPLC-MS/MS analysis; type: ADME, organism-based
# [33] = Plasma concentration in CD-1 mouse measured at 75 mg/kg, po for 24 hrs by HPLC-MS/MS analysis; type: ADME, organism-based
structure (smiles),measurement,setting,value
C[C@]1(O)C[C@@H](c2nc(-c3ccc4ccc(-c5ccccc5)nc4c3)c3c(N)nccn32)C1 [LINSITINIB],IC50,[1],> 10 µM
same,IC50,[2],> 10 µM
same,clearance,[3],12 mL/min/kg
same,Vd,[4],2.05 L/kg
same,AUC(0-inf),[5],6950 ng·h/mL
same,half-life,[6],2.14 h
same,clearance,[7],4 mL/min/kg
same,Vd,[8],0.79 L/kg
same,AUC(0-inf),[9],23100 ng·h/mL
same,half-life,[10],2.64 h
same,clearance,[11],39 mL/min/kg
same,Vd,[12],4.3 L/kg
same,AUC(0-inf),[13],1070 ng·h/mL
same,Cmax,[14],3.42 µM
same,Cmax,[15],16 µM
same,AUC(0-t),[16],26700 ng·h/mL
same,bioavailability,[17],100%
same,Cmax,[18],16.8 µM
same,AUC(0-t),[19],87500 ng·h/mL
same,bioavailability,[20],84%
same,AUC(0-t),[21],42800 ng·h/mL
same,bioavailability,[22],74%
same,AUC(0-t),[23],424000 ng·h/mL
same,Cmax,[24],1.2 µM
same,AUC(0-t),[25],1330 ng·h/mL
same,inhibition in vivo at 75 mg/kg,[26],80%
same,Activity,[27],55%
same,Activity,[28],0%
same,inhibition in vivo at 75 mg/kg,[29],100%
same,Activity,[30],16%
same,Activity,[31],Toxic
same,concentration at 24 h,[32],0.02 µM
same,concentration at 24 h,[33],2.92 µM

# From ChEMBL document CHEMBL5661980, “Discovery of OSI-906: a selective and orally efficacious dual inhibitor of the IGF-1 receptor and insulin receptor” (Future Med Chem, 2009)
